Patent US20090156646A1, “PYRIDYLPHENOL COMPOUND AND USE THEREOF” (TAKEDA PHARMACEUTICAL COMPANY LIMITED, priority 2005, published 2009)
Counter-ions that a name gives are not always drawn.

Tests used:
[1] = biological target: T1, human metastin receptor hOT7T175 (Homo sapiens, UniProt Q969F8, L364H); assay: binding inhibiting activity: 125I-metastin (40-54) binding to cell membrane fraction of h175 KB34 cells; settings: room temperature 60 minutes, read-out: binding inhibiting activity, represented by the IC50 value
T1 construct: encoding the entire length of human metastin receptor hOT7T175; expressed in transfected cells; host or cells: CHO/dhFr- cells (ATCC #CRL-9096) stably transfected with pAKKO-hOT7T175; clone h175-16 was used as whole cells for FLIPR
T1 sequence (Q969F8 whole entry L364H): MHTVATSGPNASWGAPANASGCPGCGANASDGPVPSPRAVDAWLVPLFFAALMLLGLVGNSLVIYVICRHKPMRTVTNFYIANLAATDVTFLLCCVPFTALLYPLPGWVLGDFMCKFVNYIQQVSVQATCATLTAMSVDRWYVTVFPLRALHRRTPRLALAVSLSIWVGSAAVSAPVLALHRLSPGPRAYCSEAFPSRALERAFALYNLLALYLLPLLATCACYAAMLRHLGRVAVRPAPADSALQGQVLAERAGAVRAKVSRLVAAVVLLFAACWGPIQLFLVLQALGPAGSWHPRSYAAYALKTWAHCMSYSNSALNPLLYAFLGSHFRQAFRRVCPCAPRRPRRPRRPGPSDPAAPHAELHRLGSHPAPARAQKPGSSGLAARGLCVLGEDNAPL
Outline: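 The assay buffer (pH 7.4 Tris with magnesium acetate, EGTA and a protease-inhibitor cocktail) was used either plain or supplemented with 1 mg/ml BSA. The radioligand was 125I-labelled human metastin (40-54). The receptor source was a 250-fold diluted membrane fraction of the stable CHO/dhfr− line h175 KB34.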

[2] = biological target: T1, human metastin receptor hOT7T175; assay: FLIPR assay of metastin-induced change in intracellular calcium in h175-16 cells (antagonist activity); format: cell-based; settings: human metastin (40-54) as ligand, Fluo-3 fluorescence
Protocol: cDNA fragments (SEQ ID NO: 2) encoding the entire length of human metastin receptor hOT7T175 were incorporated into expression vector pAKKO1.11H to produce animal cell expression plasmids pAKKO-hOT7T175. CHO/dhFr-cells (ATCC, #CRL-9096) were seeded onto 6 cm culture dishes (Becton Dickinson) at a density of 0.3×10^6 cells/dish, and cultured in the conditions of 48 hours, 37° C. and 5% CO2. 5 μg pAKKO-hOT7T175 plasmid DNA was transfected to the resultant cells by a known method (described in Example 3 of WO 00/24890) using the Cellphect Transfection Kit (Amersham, #27-9268-01). The DNA-transfected cells were cultured in the Dulbecco's modified Eagle medium (DMEM) (Sigma, #D6046) containing 10% dialyzed FBS (Biowest, #S180D), 1× Non-Essential Amino Acid (Invitrogen, #11140-050) and 50 μg/ml Gentamycin (Invitrogen, #15750-060; and cell strains stably expressing the plasmid genes were selected. The obtained 41 clones were treated with the FLIPR assay (in accordance with the method described in Example 3 of WO 00/24890), and the reactivity to the human metastin […] (Nos. 40 to 54 of the human metastin sequence; Peptide Institute, Inc., #4389-v) was evaluated. In the end, h175 KB34 cell strains were selected. By substantially the same method, h175-16 cell strains were also produced.
The h175-16 cell strains prepared in Test Example 1 were seeded onto a 96-well plate (Corning, #3904) at 3×10^4 cell/well, and cultured for 24 hours on a CO2 incubator (cell seeding plate).
A calcium kit buffer containing 0.1% BSA [20 mM HEPES, 115 mM NaCl, 5.4 mM KCl, 0.8 mM MgCl2, 1.8 mM CaCl2, 13.8 mM D-glucose, pH 7.4, with an attached calcium kit produced by Dojin] was prepared and kept warm at 37° C. Then, the medium in the wells of the cell seeding plate was removed, and […] of the calcium kit buffer was added to each well. 50 μl 250 mM Probenecid (with an attached calcium kit produced by Dojin), 80 μl 5% Pluronic F-127 (with an attached calcium kit produced by Dojin) and 25 μl Fluo-3 AM (powder with an attached calcium kit produced by Dojin was dissolved in DMSO at 1 mg/ml) were added to the calcium kit buffer containing 5 ml 0.1% BSA (an amount for measuring one plate) to prepare a loading solution. 50 μl of the loading solution was added to each well to allow a reaction at 37° C. for 1 hour. Thus, Fluo-3 AM was loaded onto the cells. Then, the solution in each well was removed, and 100 μl of the calcium kit buffer containing 1.25 mM Probenecid and 0.1% BSA was added to each well.
50 μl of a test compound diluted with the calcium kit buffer containing 0.1% BSA was added to each well, and stirred by a plate shaker. A cell plate, and a ligand plate provided with human metastin (40-54) (AnyGen) diluted to 400 μM with the calcium kit buffer containing 0.1% BSA, were set to the Fluorometric Imaging Plate Reader (FLIPR, Molecular Devices), and […] was added to each well using an automatic divider in the FLIPR. A change in the calcium concentration in the cells, which corresponded to the ligand response, was measured by a CCD camera in the FLIPR as a change in the amount of fluorescence of Fluo-3. The obtained change in the amount of fluorescence was plotted against the concentration of the test compound, and the compound concentration at which 50% of the change in the amount of fluorescence (i.e., IC50 value) was inhibited was calculated.

blood LH level = assay: Suppression of the blood LH level of castrated rats; format: in vivo, rat; settings: male castrated Wistar rats
Protocol: The compound of Example 303 was intravenously administered to male castrated rats, and the blood LH level was measured. Male Wistar rats (Japan SLC, Inc.), which were castrated 7 days before the experiment and were 11 weeks old at the time of the experiment, were used. […] To the control animals (n=8), only 20% DMSO-[…]% PEG400 used as a dispersion medium was intravenously administered in an amount of 0.8 ml/kg every 10 minutes, 5 times in succession. […] The LH concentration in the plasma was measured by radioimmunoassay. […] The start time of the administration was set to 0 (represented with the arrow).

Row | SMILES | melting point | IC50 [1] | IC50 [2] | blood LH concentration, % of that of the control group (blood LH level; intravenous 0.22 mg/kg every 10 minutes 5 times, 60 minutes after the start of administration, P<0.01) | effect on blood LH concentration (in words) (blood LH level; intravenously administered)
1 | Cl.N#Cc1c(-c2cccc(C(=O)NCCN)c2)cc(-c2ccccc2O)nc1NC(=O)c1cccs1 [Example 3, N-[4-(3-{[(2-aminoethyl)amino]carbonyl}phenyl)-3-cyano-6-(2-hydroxyphenyl)pyridin-2-yl]thiophene-2-carboxamide hydrochloride] | 203 to 210 °C | ≤ 10 µM | ≤ 10 µM | – | –
2 | N#Cc1c(-c2cccc(NC(=O)CN)c2)cc(-c2ccccc2O)nc1NC(=O)c1cccs1 [Example 12, N-[3-cyano-4-[3-(glycylamino)phenyl]-6-(2-hydroxyphenyl)pyridin-2-yl]thiophene-2-carboxamide dihydrochloride] | – | ≤ 10 µM | ≤ 10 µM | – | –
3 | Cl.N#Cc1c(-c2cccc(NC(=O)CCN)c2)cc(-c2ccccc2O)nc1NC(=O)c1cccs1 [Example 14, N-{4-[3-(β-alanylamino)phenyl]-3-cyano-6-(2-hydroxyphenyl)pyridin-2-yl}thiophene-2-carboxamide hydrochloride] | 223 to 228 °C | ≤ 10 µM | ≤ 10 µM | – | –
4 | N#Cc1c(-c2cccc(NC(=O)CCCN)c2)cc(-c2ccccc2O)nc1NC(=O)c1cccs1 [Example 23, N-[4-{3-[(4-aminobutanoyl)amino]phenyl}-3-cyano-6-(2-hydroxyphenyl)pyridin-2-yl]thiophene-2-carboxamide dihydrochloride] | – | ≤ 10 µM | ≤ 10 µM | – | –
5 | NCCC(=O)Nc1cccc(-c2cc(NC(=O)c3cccs3)nc(-c3ccccc3O)c2)c1 [Example 27, N-{4-[3-(β-alanylamino)phenyl]-6-(2-hydroxyphenyl)pyridin-2-yl}thiophene-2-carboxamide dihydrochloride] | – | ≤ 10 µM | ≤ 10 µM | – | –
6 | Cl.N#Cc1c(-c2cccc(N3CCNCC3)c2)cc(-c2ccc(F)cc2O)nc1NC(=O)c1ccco1 [Example 303, N-[3-cyano-6-(4-fluoro-2-hydroxyphenyl)-4-(3-piperazin-1-ylphenyl)pyridin-2-yl]-2-furamide hydrochloride] | – | ≤ 10 µM | – | 68% | significantly decreasing the blood LH concentration
7 | CCN1CCC[C@H]1CC(=O)Nc1cccc(-c2cc(-c3ccc(F)cc3O)nc(NC(=O)c3ccco3)c2C#N)c1.Cl [Example 336, N-[3-cyano-4-[3-({[(2S)-1-ethylpyrrolidin-2-yl]acetyl}amino)phenyl]-6-(4-fluoro-2-hydroxyphenyl)pyridin-2-yl]-2-furamide hydrochloride] | 182 to 187 °C | ≤ 10 µM | – | – | –
8 | CC(N)CC(=O)Nc1cccc(-c2cc(-c3ccc(F)cc3O)nc(NC(=O)c3ccco3)c2C#N)c1.Cl (centres unmarked) [Example 337, N-[4-{3-[(3-aminobutanoyl)amino]phenyl}-3-cyano-6-(4-fluoro-2-hydroxyphenyl)pyridin-2-yl]-2-furamide hydrochloride] | 213 to 215 °C | ≤ 10 µM | – | – | –
9 | CC(CC(=O)Nc1cccc(-c2cc(-c3ccc(F)cc3O)nc(NC(=O)c3ccco3)c2C#N)c1)N(C)C.Cl (centres unmarked) [Example 338, N-[3-cyano-4-(3-{[3-(dimethylamino)butanoyl]amino}phenyl)-6-(4-fluoro-2-hydroxyphenyl)pyridin-2-yl]-2-furamide hydrochloride] | 233 to 234 °C | ≤ 10 µM | – | – | –
10 | CCN(CC)C(C)CC(=O)Nc1cccc(-c2cc(-c3ccc(F)cc3O)nc(NC(=O)c3ccco3)c2C#N)c1.Cl (centres unmarked) [Example 339, N-[3-cyano-4-(3-{[3-(diethylamino)butanoyl]amino}phenyl)-6-(4-fluoro-2-hydroxyphenyl)pyridin-2-yl]-2-furamide hydrochloride] | 193 to 195 °C | ≤ 10 µM | – | – | –
